Experimental data taken from patent publication US9833497B2, “Human originated EGF domain proteins and use of the same” (CHENGDU SOURCEBIO LIMITED-LIABILITY COMPANY, priority 2013, dated 2017).

Experiments:
Type in all cases: cell-based
E. coli DH5α = assay: Antibacterial activity: MIC and growth curve against E. coli DH5α in 96-well plate; conditions: minimal inhibitory concentration against E. coli DH5α; 96-well plate, 5×10^5 CFU/mL, 37° C., judged after 8 h
Summary of the method: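 MIC taken as lowest protein level with no bacterial growth, tracked by A600 every 30 min during 37 °C, 175 rpm culture. Two-fold protein series 50-12.5 μg/mL final, triplicate wells, against 5×10^5 CFU/mL of LB-washed mid-log cells.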

E. coli BL21 = assay: MIC against Gram-negative bacteria: E. coli BL21; conditions: 10 h cultivation at 37° C.; for MIC E. coli BL21: two-fold serial dilution
Summary of the method: (§1)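 Growth inhibition by human EGF domain proteins was scored in LB liquid culture seeded at 5×10^5 CFU/mL. Protein was applied as a two-fold dilution series in triplicate, with shaking incubation at 37° C; MIC is the lowest concentration giving no growth.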

Pseudomonas aeruginosa = assay: MIC against Gram-negative bacteria: Pseudomonas aeruginosa; conditions: 10 h cultivation at 37° C.; for MIC (μg/mL) P. aeruginosa / MIC: P. aeruginosa; for MIC P. aeruginosa: two-fold serial dilution
Summary of the method: as §1

Klebsiella pneumonia = assay: MIC against Gram-negative bacteria: Klebsiella pneumonia; conditions: 10 h cultivation at 37° C.; for MIC (μg/mL) K. pneumonia / MIC: K. pneumonia; for MIC K. pneumonia: two-fold serial dilution
Summary of the method: as §1

Enterobacter cloacae = assay: MIC against Gram-negative bacteria: Enterobacter cloacae; conditions: 10 h cultivation at 37° C.; for MIC (μg/mL) E. cloacae / MIC: E. cloacae; for MIC E. cloacae: two-fold serial dilution
Summary of the method: as §1

Aeromonas hydrophila = assay: MIC against Gram-negative bacteria: Aeromonas hydrophila; conditions: 10 h cultivation at 37° C.; for MIC (μg/mL) A. hydrophila / MIC: A. hydrophila; for MIC A. hydrophila: two-fold serial dilution
Summary of the method: as §1

Citrobacter diversus = assay: MIC against Gram-negative bacteria: Citrobacter diversus; conditions: 10 h cultivation at 37° C.; for MIC (μg/mL) C. diversus / MIC: C. diversus; for MIC C. diversus: two-fold serial dilution
Summary of the method: as §1

Moraxella catarrhalis = assay: MIC against Gram-negative bacteria: Moraxella catarrhalis; conditions: 10 h cultivation at 37° C.; for MIC (μg/mL) M. catarrhalis / MIC: M. catarrhalis; for MIC M. catarrhalis: two-fold serial dilution
Summary of the method: as §1

Proteus mirabilis = assay: MIC against Gram-negative bacteria: Proteus mirabilis; conditions: 10 h cultivation at 37° C.; for MIC (μg/mL) P. mirabilis / MIC: P. mirabilis; for MIC P. mirabilis: two-fold serial dilution
Summary of the method: as §1

Proteus vulgaris = assay: MIC against Gram-negative bacteria: Proteus vulgaris; conditions: 10 h cultivation at 37° C.; for MIC (μg/mL) P. vulgaris / MIC: P. vulgaris; for MIC P. vulgaris: two-fold serial dilution
Summary of the method: as §1

Serratia marcescens = assay: MIC against Gram-negative bacteria: Serratia marcescens; conditions: 10 h cultivation at 37° C.; for MIC (μg/mL) S. marcescens / MIC: S. marcescens; for MIC S. marcescens: two-fold serial dilution
Summary of the method: as §1

PRT172 (CADGPCFNGGRCSDSPDGGYSCRCPVGYSGFNC; listed as Homo sapiens)
MIC (E. coli DH5α): 12.5 µg/mL | MIC (μg/mL) E. coli BL21 (E. coli BL21; E. coli BL21, 5×10^5 CFU/mL): 25 µg/mL | MIC (μg/mL) P. aeruginosa (Pseudomonas aeruginosa; 5×10^5 CFU/mL): 50 µg/mL | MIC (μg/mL) K. pneumonia (Klebsiella pneumonia; 5×10^5 CFU/mL): 25 µg/mL | MIC (μg/mL) E. cloacae (Enterobacter cloacae; 5×10^5 CFU/mL): 12.5 µg/mL | MIC (μg/mL) A. hydrophila (Aeromonas hydrophila; 5×10^5 CFU/mL): 12.5 µg/mL | MIC (μg/mL) C. diversus (Citrobacter diversus; 5×10^5 CFU/mL): 12.5 µg/mL | MIC (μg/mL) M. catarrhalis (Moraxella catarrhalis; 5×10^5 CFU/mL): 12.5 µg/mL | MIC (μg/mL) P. mirabilis (Proteus mirabilis; 5×10^5 CFU/mL): 12.5 µg/mL | MIC (μg/mL) P. vulgaris (Proteus vulgaris; 5×10^5 CFU/mL): 12.5 µg/mL | MIC (μg/mL) S. marcescens (Serratia marcescens; 5×10^5 CFU/mL): 12.5 µg/mL

PRT942 (LVNLCSRSPCKNKGTCVQKKAESQCLCPSGWAGAYCD; listed as Homo sapiens)
MIC (E. coli DH5α): 25 µg/mL | MIC (E. coli BL21; E. coli BL21): 50 µg/mL | MIC (Pseudomonas aeruginosa): 12.5 µg/mL | MIC (Klebsiella pneumonia): 50 µg/mL | MIC (Enterobacter cloacae): 12.5 µg/mL | MIC (Aeromonas hydrophila): 25 µg/mL | MIC (Citrobacter diversus): 50 µg/mL | MIC (Moraxella catarrhalis): 12.5 µg/mL | MIC (Proteus mirabilis): 50 µg/mL | MIC (Proteus vulgaris): 12.5 µg/mL | MIC (Serratia marcescens): 50 µg/mL

PRT1077 (RSHACENDQYGKPGGCSDICLLANSHKARTCRCRSGFSLGSDGKSCK; listed as Homo sapiens)
MIC (E. coli DH5α): 12.5 µg/mL | MIC E. coli BL21 (E. coli BL21; 5×10^5 CFU/mL): 12.5 µg/mL | MIC P. aeruginosa (Pseudomonas aeruginosa; 5×10^5 CFU/mL): 12.5 µg/mL | MIC K. pneumonia (Klebsiella pneumonia; 5×10^5 CFU/mL): 50 µg/mL | MIC E. cloacae (Enterobacter cloacae; 5×10^5 CFU/mL): 25 µg/mL | MIC A. hydrophila (Aeromonas hydrophila; 5×10^5 CFU/mL): 25 µg/mL | MIC C. diversus (Citrobacter diversus; 5×10^5 CFU/mL): 25 µg/mL | MIC M. catarrhalis (Moraxella catarrhalis; 5×10^5 CFU/mL): 25 µg/mL | MIC P. mirabilis (Proteus mirabilis; 5×10^5 CFU/mL): 25 µg/mL | MIC P. vulgaris (Proteus vulgaris; 5×10^5 CFU/mL): 50 µg/mL | MIC S. marcescens (Serratia marcescens; 5×10^5 CFU/mL): 12.5 µg/mL

PRT437 (DEDECAAGNPCSHSCHNAMGTYYCSCPKGLTIAADGRTCQ; listed as Homo sapiens)
MIC (E. coli DH5α): 50 µg/mL | MIC (E. coli BL21; E. coli BL21, 5×10^5 CFU/mL): 12.5 µg/mL | MIC (Pseudomonas aeruginosa; 5×10^5 CFU/mL): 50 µg/mL | MIC (Klebsiella pneumonia; 5×10^5 CFU/mL): 25 µg/mL | MIC (Enterobacter cloacae; 5×10^5 CFU/mL): 12.5 µg/mL | MIC (Aeromonas hydrophila; 5×10^5 CFU/mL): 25 µg/mL | MIC (Citrobacter diversus; 5×10^5 CFU/mL): 50 µg/mL | MIC (Moraxella catarrhalis; 5×10^5 CFU/mL): 25 µg/mL | MIC (Proteus mirabilis; 5×10^5 CFU/mL): 12.5 µg/mL | MIC (Proteus vulgaris; 5×10^5 CFU/mL): 25 µg/mL | MIC (Serratia marcescens; 5×10^5 CFU/mL): 50 µg/mL

PRT1103 (DHDECASSPCQNGAVCQDGIDGYSCFCVPGYQGRHCD; listed as Homo sapiens)
MIC (E. coli DH5α): 12.5 µg/mL | MIC E. coli BL21 (E. coli BL21; 5×10^5 CFU/mL): 25 µg/mL | MIC P. aeruginosa (Pseudomonas aeruginosa; 5×10^5 CFU/mL): 12.5 µg/mL | MIC K. pneumonia (Klebsiella pneumonia; 5×10^5 CFU/mL): 25 µg/mL | MIC E. cloacae (Enterobacter cloacae; 5×10^5 CFU/mL): 50 µg/mL | MIC A. hydrophila (Aeromonas hydrophila; 5×10^5 CFU/mL): 25 µg/mL | MIC C. diversus (Citrobacter diversus; 5×10^5 CFU/mL): 12.5 µg/mL | MIC M. catarrhalis (Moraxella catarrhalis; 5×10^5 CFU/mL): 25 µg/mL | MIC P. mirabilis (Proteus mirabilis; 5×10^5 CFU/mL): 50 µg/mL | MIC P. vulgaris (Proteus vulgaris; 5×10^5 CFU/mL): 25 µg/mL | MIC S. marcescens (Serratia marcescens; 5×10^5 CFU/mL): 12.5 µg/mL

PRT1476 (DVDECSLKPSICGTAVCKNIPGDFECECPEGYRYNLKSKSCE; listed as Homo sapiens)
MIC (E. coli DH5α): 12.5 µg/mL | MIC against E. coli BL21 (E. coli BL21; E. coli BL21, 5×10^5 CFU/mL): 25 µg/mL | MIC against P. aeruginosa (Pseudomonas aeruginosa; Pseudomonas aeruginosa, 5×10^5 CFU/mL): 12.5 µg/mL | MIC against K. pneumonia (Klebsiella pneumonia; Klebsiella pneumonia, 5×10^5 CFU/mL): 50 µg/mL | MIC against E. cloacae (Enterobacter cloacae; Enterobacter cloacae, 5×10^5 CFU/mL): 12.5 µg/mL | MIC against A. hydrophila (Aeromonas hydrophila; Aeromonas hydrophila, 5×10^5 CFU/mL): 50 µg/mL | MIC against C. diversus (Citrobacter diversus; Citrobacter diversus, 5×10^5 CFU/mL): 12.5 µg/mL | MIC against M. catarrhalis (Moraxella catarrhalis; Moraxella catarrhalis, 5×10^5 CFU/mL): 25 µg/mL | MIC against P. mirabilis (Proteus mirabilis; Proteus mirabilis, 5×10^5 CFU/mL): 50 µg/mL | MIC against P. vulgaris (Proteus vulgaris; Proteus vulgaris, 5×10^5 CFU/mL): 12.5 µg/mL | MIC against S. marcescens (Serratia marcescens; Serratia marcescens, 5×10^5 CFU/mL): 25 µg/mL

PRT764 (AQDKCALGTHGCQHICVNDRTGSHHCECYEGYTLNADKKTCS; listed as Homo sapiens)
MIC (E. coli DH5α): 12.5 µg/mL | MIC (μg/mL) E. coli BL21 (E. coli BL21; E. coli BL21, 5×10^5 CFU/mL): 25 µg/mL | MIC (μg/mL) P. aeruginosa (Pseudomonas aeruginosa; 5×10^5 CFU/mL): 50 µg/mL | MIC (μg/mL) K. pneumonia (Klebsiella pneumonia; 5×10^5 CFU/mL): 100 µg/mL | MIC (μg/mL) E. cloacae (Enterobacter cloacae; 5×10^5 CFU/mL): 50 µg/mL | MIC (μg/mL) A. hydrophila (Aeromonas hydrophila; 5×10^5 CFU/mL): 12.5 µg/mL | MIC (μg/mL) C. diversus (Citrobacter diversus; 5×10^5 CFU/mL): 50 µg/mL | MIC (μg/mL) M. catarrhalis (Moraxella catarrhalis; 5×10^5 CFU/mL): 12.5 µg/mL | MIC (μg/mL) P. mirabilis (Proteus mirabilis; 5×10^5 CFU/mL): 25 µg/mL | MIC (μg/mL) P. vulgaris (Proteus vulgaris; 5×10^5 CFU/mL): 25 µg/mL | MIC (μg/mL) S. marcescens (Serratia marcescens; 5×10^5 CFU/mL): 50 µg/mL
